Assay results published in US11667649B2, “Heteroaromatic macrocyclic ether chemotherapeutic agents” (Nuvalent, Inc., priority 2020, dated 2023).

Tested on: TPM3-NTRK1-wt IC50 / primary target (e.g. CD74-ROS1-wt) IC50, Ba/F3 cells
Assay: Cell assay TRKA selectivity (TRKA potency divided by primary target potency)
Assay type: cell-based
Settings: for TPM3-NTRK1-wt/CD74-ROS1-G2032R: TRKA selectivity ratio: TPM3-NTRK1-wt IC50 / CD74-ROS1-G2032R IC50, Ba/F3 cells; for TPM3-NTRK1-wt/CD74-ROS1-wt: TRKA selectivity ratio: TPM3-NTRK1-wt IC50 / CD74-ROS1-wt IC50, Ba/F3 cells; for TPM3-NTRK1-wt/EML4-ALK-L1196M-G1202R: TRKA selectivity ratio: TPM3-NTRK1-wt IC50 / EML4-ALK-L1196M-G1202R IC50, Ba/F3 cells; for TPM3-NTRK1-wt/EML4-ALK-wt: TRKA selectivity ratio: TPM3-NTRK1-wt IC50 / EML4-ALK-wt IC50, Ba/F3 cells
From the text: Genes encoding CD74-ROS1 wild-type (wt), CD74-ROS1 G2032R, CD74-ROS1 S1986F, CD74-ROS1 L2026M, CD74-ROS1 D2033N, EML4-ALK wt (variant 1), EML4-ALK G1202R (variant 1), EML4-ALK L1196M/G1202R (variant 1), EML4-ALK G1202R/G1269A (variant 1), EML4-ALK G1202R/L1198F (variant 1), and TPM3-TRKA were synthesized at GeneRay, cloned into the retroviral construct pMSCV-puro (Biovector), and packaged into retroviral particles. The virus was used to infect Ba/F3 cells (RIKEN) at multiplicity of infection=1 for 1 day. Infected cells were rescued in media (RPMI-1640 with 10% fetal bovine serum and 1% streptomycin and penicillin) supplemented with mouse IL-3 (10 ng/mL) for 2 days, and stable cell lines were selected by IL-3 withdrawal and puromycin (0.8 μg/mL) for 7 days. Monoclones were selected by single-cell dilution in IL-3-free medium containing puromycin (0.8 μg/mL). Transformation of desired genes was confirmed by Sanger sequencing and western blot using the following antibodies: ROS1 (CST #3287), ALK (CST #3633), and pan-TRK (Abcam #76291).
Stable cells were plated at 1,000 cells/well (40 μL) in a 384-well plate for 1 day. Test compounds (40 nL) were then added in a 3-fold dilution series using the TECAN EVO200 liquid handler and incubated for 72 hours. Plates were equilibrated at room temperature for 15 minutes followed by addition of 40 μL CellTiter-Glo reagent (Promega). Luminescence was measured on a plate reader. Half-maximal inhibitory concentration (IC50) was calculated from percent inhibition and inhibitor concentration using four-parameter logistic regression. […] Exemplary data is given in Table 4 (nd is not determined).
TRKA selectivity was calculated by dividing a compound's TRKA potency by its primary target potency (e.g. TPM3-NTRK1-wt IC50/CD74-ROS1-wt IC50). Compound selectivity can be interpreted by binning ratio values: bin A for very high selectivity, ratio>30-fold; bin B for high selectivity, ratio>10-fold; bin C for moderate selectivity, ratio≥1; and bin D for low selectivity, ratio<1. […] (nd=not determined).

| Compound | TPM3-NTRK1-wt/CD74-ROS1-G2032R | TPM3-NTRK1-wt/CD74-ROS1-wt | TPM3-NTRK1-wt/EML4-ALK-L1196M-G1202R | TPM3-NTRK1-wt/EML4-ALK-wt |
| --- | --- | --- | --- | --- |
| C[C@H]1Oc2cc(cnc2N)-c2c(C#N)nnn2Cc2cccnc2-c2ccc(F)cc21 [Example 25, (20R)-23-amino-17-fluoro-20-methyl-21-oxa-4,5,6,12,24-pentaazapentacyclo[20.3.1.0^2,^6.0^8,^13.0^14,^19]hexacosa-1(25),2,4,8(13),9,11,14,16,18,22(26),23-undecaene-3-carbonitrile] | A (bin A for very high selectivity, ratio>30-fold) | A (bin A for very high selectivity, ratio>30-fold) | B (bin B for high selectivity, ratio>10-fold) | A (bin A for very high selectivity, ratio>30-fold) |
| C[C@H]1Oc2cc(cnc2N)-c2c(C3CCC3)noc2Cc2cn(C)nc2-c2ccc(F)cc21 [Example 26, (19R)-3-cyclobutyl-16-fluoro-10,19-dimethyl-5,20-dioxa-4,10,11,23-tetraazapentacyclo[19.3.1.0^2,^6.0^8,^12.0^13,^18]pentacosa-1(24),2(6),3,8,11,13,15,17,21(25),22-decaen-22-amine] | A (bin A for very high selectivity, ratio>30-fold) | A (bin A for very high selectivity, ratio>30-fold) | B (bin B for high selectivity, ratio>10-fold) | A (bin A for very high selectivity, ratio>30-fold) |
| C[C@H]1Oc2cc(cnc2N)-c2c(cnn2CC(F)(F)F)Cc2cn(C)nc2-c2ccc(F)cc21 [Example 27, (19R)-16-fluoro-10,19-dimethyl-3-(2,2,2-trifluoroethyl)-20-oxa-3,4,10,11,23-pentaazapentacyclo[19.3.1.0^2,^6.0^8,^12.0^13,^18]pentacosa-1(24),2(6),4,8,11,13,15,17,21(25),22-decaen-22-amine] | A (bin A for very high selectivity, ratio>30-fold) | A (bin A for very high selectivity, ratio>30-fold) | A (bin A for very high selectivity, ratio>30-fold) | A (bin A for very high selectivity, ratio>30-fold) |
| CCn1ncc2c1-c1cnc(N)c(c1)O[C@H](C)c1cc(F)ccc1-c1nn(C)c(Cl)c1C2 [Example 28, (19R)-9-chloro-3-ethyl-16-fluoro-10,19-dimethyl-20-oxa-3,4,10,11,23-pentaazapentacyclo[19.3.1.0^2,^6.0^8,^12.0^13,^18]pentacosa-1(24),2(6),4,8,11,13,15,17,21(25),22-decaen-22-amine] | A (bin A for very high selectivity, ratio>30-fold) | A (bin A for very high selectivity, ratio>30-fold) | C (bin C for moderate selectivity, ratio≥1) | A (bin A for very high selectivity, ratio>30-fold) |
| C[C@H]1Oc2cc(cnc2N)-c2c(nnn2CC2CC2)Cc2cn(C)nc2-c2ccc(F)cc21 [Example 29, (19R)-3-(cyclopropylmethyl)-16-fluoro-10,19-dimethyl-20-oxa-3,4,5,10,11,23-hexaazapentacyclo[19.3.1.0^2,^6.0^8,^12.0^13,^18]pentacosa-1(24),2(6),4,8,11,13,15,17,21(25),22-decaen-22-amine] | A (bin A for very high selectivity, ratio>30-fold) | A (bin A for very high selectivity, ratio>30-fold) | A (bin A for very high selectivity, ratio>30-fold) | A (bin A for very high selectivity, ratio>30-fold) |
| CCc1noc2c1-c1cnc(N)c(c1)OCc1cc(F)ccc1-c1nn(C)cc1C2 [Example 30, 3-ethyl-16-fluoro-10-methyl-5,20-dioxa-4,10,11,23-tetraazapentacyclo[19.3.1.0^2,^6.0^8,^12.0^13,^18]pentacosa-1(24),2(6),3,8,11,13,15,17,21(25),22-decaen-22-amine] | A (bin A for very high selectivity, ratio>30-fold) | A (bin A for very high selectivity, ratio>30-fold) | C (bin C for moderate selectivity, ratio≥1) | A (bin A for very high selectivity, ratio>30-fold) |
| CCn1ncc2c1-c1cnc(N)c(c1)O[C@H](C)c1cc(F)ccc1-c1nccn1C2 [Example 31, (19R)-3-ethyl-16-fluoro-19-methyl-20-oxa-3,4,8,11,23-pentaazapentacyclo[19.3.1.0^2,^6.0^8,^12.0^13,^18]pentacosa-1(24),2(6),4,9,11,13,15,17,21(25),22-decaen-22-amine] | A (bin A for very high selectivity, ratio>30-fold) | A (bin A for very high selectivity, ratio>30-fold) | C (bin C for moderate selectivity, ratio≥1) | A (bin A for very high selectivity, ratio>30-fold) |
| CCn1ncc2c1-c1cnc(N)c(c1)O[C@H](C)c1cc(F)ccc1-c1c(cnn1C)C2 [Example 32, (19R)-3-ethyl-16-fluoro-11,19-dimethyl-20-oxa-3,4,10,11,23-pentaazapentacyclo[19.3.1.0^2,^6.0^8,^12.0^13,^18]pentacosa-1(24),2(6),4,8(12),9,13,15,17,21(25),22-decaen-22-amine] | A (bin A for very high selectivity, ratio>30-fold) | A (bin A for very high selectivity, ratio>30-fold) | C (bin C for moderate selectivity, ratio≥1) | B (bin B for high selectivity, ratio>10-fold) |
| CCn1ncc2c1-c1cnc(N)c(c1)O[C@H](C)c1cc(F)ccc1-n1nccc1C2 [Example 33, (19R)-3-ethyl-16-fluoro-19-methyl-20-oxa-3,4,11,12,23-pentaazapentacyclo[19.3.1.0^2,^6.0^8,^12.0^13,^18]pentacosa-1(24),2(6),4,8,10,13,15,17,21(25),22-decaen-22-amine] | A (bin A for very high selectivity, ratio>30-fold) | A (bin A for very high selectivity, ratio>30-fold) | B (bin B for high selectivity, ratio>10-fold) | A (bin A for very high selectivity, ratio>30-fold) |
| CCn1ncc2c1-c1cnc(N)c(c1)OCc1cc(F)ccc1-c1nccn1C2 [Example 34, 3-ethyl-16-fluoro-20-oxa-3,4,8,11,23-pentaazapentacyclo[19.3.1.0^2,^6.0^8,^12.0^13,^18]pentacosa-1(24),2(6),4,9,11,13,15,17,21(25),22-decaen-22-amine] | A (bin A for very high selectivity, ratio>30-fold) | A (bin A for very high selectivity, ratio>30-fold) | B (bin B for high selectivity, ratio>10-fold) | A (bin A for very high selectivity, ratio>30-fold) |
| CCn1ncc2c1-c1cnc(N)c(c1)OC(C)c1cc(F)ccc1-c1cnccc1C2 (stereo not drawn) [Example 35, 3-ethyl-17-fluoro-20-methyl-21-oxa-3,4,11,24-tetraazapentacyclo[20.3.1.0^2,^6.0^8,^13.0^14,^19]hexacosa-1(25),2(6),4,8(13),9,11,14,16,18,22(26),23-undecaen-23-amine] | A (bin A for very high selectivity, ratio>30-fold) | A (bin A for very high selectivity, ratio>30-fold) | C (bin C for moderate selectivity, ratio≥1) | A (bin A for very high selectivity, ratio>30-fold) |
| CCn1ncc2c1-c1cnc(N)c(c1)OC(C)c1cc(F)ccc1-c1ccncc1C2 (stereo not drawn) [Example 36, 3-ethyl-17-fluoro-20-methyl-21-oxa-3,4,10,24-tetraazapentacyclo[20.3.1.0^2,^6.0^8,^13.0^14,^19]hexacosa-1(25),2(6),4,8(13),9,11,14,16,18,22(26),23-undecaen-23-amine] | A (bin A for very high selectivity, ratio>30-fold) | A (bin A for very high selectivity, ratio>30-fold) | C (bin C for moderate selectivity, ratio≥1) | A (bin A for very high selectivity, ratio>30-fold) |
